{
  "source": "patent US4710578A",
  "about": "“Isothiuronium salts” (Peremartoni Vegyipari Vallalat, priority 1984, dated 1987)",
  "key": {"[1]": {"assay": "in vivo"}, "[2]": {"tested_on": "neutrophilic granulocytes, lymphocytes and macrophages", "assay": "Preliminary rapid test: immunostimulant effect", "assay_type": "in vivo, CFLP male mice", "details": "oral, one-tenth of LD50; 24 hours"}, "[3]": {"tested_on": "neutrophylic granulocytes and limphocytes", "details": "mouse, in vivo, po"}, "[4]": {"tested_on": "NK-yl ascites tumor", "assay": "Combinations with known cytostatic agents in NK-ly ascites tumor", "assay_type": "in vivo, CFLP mice", "details": "with cyclophosphamide, carnomustine, degranol, dibromo dulcitol or dibromo mannitol"}, "[5]": {"tested_on": "NK-ly-ascites lymphoma", "assay": "NK-ly-ascites lymphoma in vivo", "design": "species or system CFLP male mice", "details": "for Activity against NK-ly-ascites tumor: concentration below one-tenth of the LD50 value; for Survival rate and lifetime: dose-dependant"}},
  "data": [
    {"compound": "C#CCSC(=N)NC(=N)N", "note": "[Example 31, N-aminoiminomethyl-S-propargyl-isothuronium bromide]", "values": [
      {"measurement": "LD50 at 24 h", "setting": "[1]; po", "value": 90, "unit": "mg/kg"}
    ]},
    {"compound": "C=C(C)CSC(=N)NC(=N)N", "note": "[Example 44, N-(Aminoiminomethyl)-S-Metallyl-Isothiuronium-Bromide]", "values": [
      {"measurement": "Immunostimulant effect", "setting": "[2]", "value": "medium (Medium effect is observed if the increase of cell number or activity over the control amounts to 20%)"},
      {"measurement": "Toxic effect", "setting": "[3]", "value": 0},
      {"measurement": "LD50 at 24 h", "setting": "[1]; po", "value": "1640 ± 210", "unit": "mg/kg"}
    ]},
    {"compound": "C=CCN=C(NC(=N)N)SCC=C", "note": "[Example 45, N-(Aminoiminomethyl)-N'-Allyl-S-Allyl-Isothiuronium Bromide]", "values": [
      {"measurement": "Immunostimulant effect", "setting": "[2]", "value": "weak"},
      {"measurement": "Antitumor effect of combination vs cytostatic agent alone", "setting": "[4]", "value": "the antitumor effect was strengthened"},
      {"measurement": "Immunodepression of combination vs cytostatic agent alone", "setting": "[4]", "value": "immunodepression decreased"},
      {"measurement": "Toxic effect", "setting": "[3]", "value": 0},
      {"measurement": "LD50 at 24 h", "setting": "[1]; ip", "value": "36 ± 4", "unit": "mg/kg"},
      {"measurement": "LD50 at 24 h", "setting": "[1]; po", "value": "380 ± 41", "unit": "mg/kg"},
      {"measurement": "Activity against NK-ly-ascites tumor", "setting": "[5]", "value": "active agains Nk-ly-ascites tumor in a concentration below one-tenth of the LD50 value"},
      {"measurement": "Survival rate and lifetime", "setting": "[5]", "value": "increase survival rate and lifetime in a dose-dependant manner"}
    ]},
    {"compound": "N=C(N)NC(=N)SCCCO", "note": "[Example 29, N-aminoiminomethyl-S-(3-hydroxy-propyl)-isothiuronium bromide]", "values": [
      {"measurement": "Immunostimulant effect", "setting": "[2]", "value": "medium (Medium effect is observed if the increase of cell number or activity over the control amounts to 20%)"},
      {"measurement": "Toxic effect", "setting": "[3]", "value": 0},
      {"measurement": "LD50 at 24 h", "setting": "[1]; po", "value": "2860 ± 180", "unit": "mg/kg"}
    ]},
    {"compound": "CCCSC(=N)NC(=N)N", "note": "[Example 10, N-Aminoiminomethyl-S-n-Propyl-Isothuronium Bromide]", "values": [
      {"measurement": "Immunostimulant effect", "setting": "[2]", "value": "medium (Medium effect is observed if the increase of cell number or activity over the control amounts to 20%)"},
      {"measurement": "Toxic effect", "setting": "[3]", "value": 0},
      {"measurement": "LD50 at 24 h", "setting": "[1]; po", "value": "2800 ± 260", "unit": "mg/kg"}
    ]},
    {"compound": "C=CCSC(=NC)NC(=N)N", "note": "[Example 20, N-Aminoiminomethyl-N'-Methyl-S-Allyl-Isothiuronium Chloride]", "values": [
      {"measurement": "Immunostimulant effect", "setting": "[2]", "value": "weak"},
      {"measurement": "Toxic effect", "setting": "[3]", "value": 0},
      {"measurement": "LD50 at 24 h", "setting": "[1]; ip", "value": "75 ± 6.3", "unit": "mg/kg"},
      {"measurement": "LD50 at 24 h", "setting": "[1]; po", "value": "600 ± 54", "unit": "mg/kg"},
      {"measurement": "Activity against NK-ly-ascites tumor", "setting": "[5]", "value": "active agains Nk-ly-ascites tumor in a concentration below one-tenth of the LD50 value"},
      {"measurement": "Survival rate and lifetime", "setting": "[5]", "value": "increase survival rate and lifetime in a dose-dependant manner"}
    ]},
    {"compound": "CSC(=N)NC(=N)N", "note": "[Example 9, N-Aminoiminomethyl-S-Methyl-Isothiuronium Iodide]", "values": [
      {"measurement": "Immunostimulant effect", "setting": "[2]", "value": "medium (Medium effect is observed if the increase of cell number or activity over the control amounts to 20%)"},
      {"measurement": "LD50 at 24 h", "setting": "[1]; po", "value": "2320 ± 220", "unit": "mg/kg"}
    ]},
    {"compound": "CCSC(=N)NC(=N)N", "note": "[Example 23, N-aminoiminomethyl-S-ethyl-isothiuronium bromide]", "values": [
      {"measurement": "Immunostimulant effect", "setting": "[2]", "value": "strong (The effect is strong if the increase of the cell number and activity of the immune system is more than 20% higher than the control)"},
      {"measurement": "Toxic effect", "setting": "[3]", "value": 0},
      {"measurement": "LD50 at 24 h", "setting": "[1]; po", "value": "3080 ± 290", "unit": "mg/kg"}
    ]},
    {"compound": "CCCCSC(=N)NC(=N)N", "note": "[Example 25, N-aminoiminomethyl-S-n-butyl-isothiuronium bromide]", "values": [
      {"measurement": "Immunostimulant effect", "setting": "[2]", "value": "medium (Medium effect is observed if the increase of cell number or activity over the control amounts to 20%)"},
      {"measurement": "Toxic effect", "setting": "[3]", "value": 0},
      {"measurement": "LD50 at 24 h", "setting": "[1]; po", "value": "2700 ± 310", "unit": "mg/kg"}
    ]},
    {"compound": "C=CCSC(=NC(C)C)NC(=N)N", "note": "[Example 21, N-aminoiminomethyl-N'-Isopropyl-S-Allyl-Isothiuronium Chloride]", "values": [
      {"measurement": "Immunostimulant effect", "setting": "[2]", "value": "weak"},
      {"measurement": "Toxic effect", "setting": "[3]", "value": 0},
      {"measurement": "LD50 at 24 h", "setting": "[1]; ip", "value": "32 ± 4", "unit": "mg/kg"},
      {"measurement": "LD50 at 24 h", "setting": "[1]; po", "value": "280 ± 26", "unit": "mg/kg"}
    ]},
    {"compound": "CC(C)CCSC(=N)NC(=N)N", "note": "[Example 26, N-aminoiminomethyl-S-isoamyl-isothiuronium bromide]", "values": [
      {"measurement": "Immunostimulant effect", "setting": "[2]", "value": "medium (Medium effect is observed if the increase of cell number or activity over the control amounts to 20%)"},
      {"measurement": "Toxic effect", "setting": "[3]", "value": 0},
      {"measurement": "LD50 at 24 h", "setting": "[1]; po", "value": "2260 ± 241", "unit": "mg/kg"}
    ]},
    {"compound": "CC(C)SC(=N)NC(=N)N", "note": "[Example 24, N-aminoiminomethyl-S-isopropyl-isothiuronium bromide]", "values": [
      {"measurement": "Immunostimulant effect", "setting": "[2]", "value": "medium (Medium effect is observed if the increase of cell number or activity over the control amounts to 20%)"},
      {"measurement": "Toxic effect", "setting": "[3]", "value": 0},
      {"measurement": "LD50 at 24 h", "setting": "[1]; po", "value": "2260 ± 210", "unit": "mg/kg"}
    ]}
  ]
}
